# Reference: paper PMC6736633 (Bioorganic & medicinal chemistry letters, 2019)
# Tested on: Mycobacterium tuberculosis (Mtb) H37Rv
# Test: Mtb luminescence assay
# Type: cell-based
# Conditions: for relative Mtb signal / reduction in Mtb signal (in words): 20 μM
SMILES,relative Mtb signal,reduction in Mtb signal (in words),also measured
COc1cc2nccc(Nc3ccc(OCc4cccc(F)c4)c(Cl)c3)c2cc1OC [Compound 28],10%,,
COc1cc2nccc(Nc3ccc(NC(C)=O)cc3)c2cc1OC [Compound 31],,,effect on Mtb (in words) (across tested concentrations up to 20 μM): no effect
COc1ccc2nccc(Nc3ccc(NC(=O)c4ccc(C)cc4)c(O)c3)c2c1 [Compound 32],,no reduction,
COc1ccc2c(Nc3ccc(NC(=O)c4ccc(C)cc4)c(O)c3)ccnc2c1 [Compound 33],,no reduction,
C#Cc1cccc(Nc2ncnc3cc(OCCOC)c(OCCOC)cc23)c1 [Erlotinib],,,Mtb signal at plateau (plateau of effect): approximately 70%
CS(=O)(=O)CCNCc1ccc(-c2ccc3ncnc(Nc4ccc(OCc5cccc(F)c5)c(Cl)c4)c3c2)o1 [Lapatinib],below 10%,,
